From publication PMC10213809 (Cell Reports Medicine, 2023)
Entries after “also recorded” stand apart in the source; their conditions may differ.

Legend:
[1] = test system: WNV; format: cell-based, West Nile virus
[2] = test system: RSV; format: cell-based, respiratory syncytial virus
[3] = test system: CHIKV; format: cell-based, Chikungunya virus
[4] = test system: WNV; format: cell-based, West Nile virus; details: for antiviral activity (inhibition) against WNV, primary screen: HFF-1, moderate antiviral activity; for infectivity against WNV at the highest non-toxic dose: 100 μg/mL; for infectivity against WNV at the highest non-toxic dose / inhibition of WNV, primary screen: HFF-1
[5] = test system: CHIKV; assay: Viral-mediated cytopathic effect / cell death in infected HFF-1 cells; format: cell-based, Chikungunya virus; details: HFF-1, 48 hpi, effective concentration
[6] = test system: ZIKV; format: cell-based, Zika virus; details: HFF-1; for infectivity against ZIKV at the highest non-toxic dose: 100 μg/mL
[7] = test system: CHIKV; format: cell-based, Chikungunya virus; details: for inhibition of CHIKV, primary screen: HFF-1
[8] = test system: TBK-IRF3 signaling cascade; format: cell-based, human; details: HFF-1, pretreatment, uninfected cells
[9] = test system: arboviruses (CHIKV, WNV, ZIKV); assay: qRT-PCR of viral genome replication in drug-treated fibroblasts at 48 hpi; format: cell-based
[10] = test system: CHIKV; format: cell-based, Chikungunya virus; details: read-out: IC50, antiviral activity against CHIKV; human fibroblasts (HFF-1), eight-dose response
[11] = test system: CHIKV; assay: RNA sequencing of drug-treated CHIKV-infected HFF-1 cells; format: cell-based, Chikungunya virus; details: for viral genome reads of the total reads: RNA sequencing
[12] = test system: STING-IRF3 and STING-NF-κB pathways; format: cell-based, human; details: HFF-1, 2 h post-stimulation
[13] = test system: CHIKV; format: cell-based, Chikungunya virus; remark: listed apart in the source
[14] = test system: HFF-1 cells; assay: NAD/NADH-Glo assay, intracellular NADH; format: cell-based, human; details: HFF-1, 48 hpi
[15] = test system: HFF-1 cells; assay: Intracellular ATP level; format: cell-based, human; details: CHIKV-infected HFF-1, 48 hpi
[16] = test system: CHIKV (strain 181/25); assay: CHIKV arthritis mouse model
[17] = test system: CHIKV (strain 181/25); assay: Histopathology and IHC of CHIKV-infected mouse footpad; format: in vivo

Compound: CCC(CC)COC(=O)[C@H](C)N[P@](=O)(OC[C@H]1O[C@@](C#N)(c2ccc3c(N)ncnn23)[C@H](O)[C@@H]1O)Oc1ccccc1 [Remdesivir]
- antiviral activity against WNV [1]: no effective antiviral activity; also recorded: not active
- inhibition of RSV infection [2]: efficient inhibition
- antiviral activity against CHIKV [3]: no effective antiviral activity; also recorded: not active

Compound: O=c1cnn([C@@H]2O[C@H](CO)[C@@H](O)[C@H]2O)c(=O)[nH]1 [6-azauridine, 6-Azauridine]
- inhibition of RSV infection [2]: efficient inhibition

Compound: Nc1ncnc2c1ncn2[C@@H]1O[C@@H]2COP(=O)(O)O[C@H]3[C@@H](O)[C@H](n4cnc5c(N)ncnc54)O[C@@H]3COP(=O)(O)O[C@H]2[C@H]1O [c-di-AMP]
- antiviral activity (inhibition) against WNV, primary screen [4]: > 50%

Compound: Nc1nc2c(ncn2[C@@H]2O[C@@H]3COP(=O)(O)O[C@H]4[C@@H](O)[C@H](n5cnc6c(N)ncnc65)O[C@@H]4COP(=O)(O)O[C@H]3[C@H]2O)c(=O)[nH]1 [3'3'-cGAMP, 3′,3′-cGAMP]
- infectivity against WNV at the highest non-toxic dose [4]: below-detectable infectivity
- viral-mediated cytopathic effect (CPE) [5]: prevented CPE
- infectivity against ZIKV at the highest non-toxic dose [6]: below-detectable infectivity
- infectivity against CHIKV at the highest non-toxic dose [7]: below-detectable infectivity
- phosphorylation of IRF3 (western blot) [8]: induced phosphorylation of IRF3

Compound: CCn1nc(C)cc1C(=O)Nc1nc2cc(C(N)=O)cc(OC)c2n1C/C=C/Cn1c(NC(=O)c2cc(C)nn2CC)nc2cc(C(N)=O)cc(OCCCN3CCOCC3)c21 [diABZI]
- viral genome replication (qRT-PCR) [9]: significantly reduced
- viral-mediated cytopathic effect (CPE) [5]: prevented CPE
- antiviral activity, post-treatment of CHIKV-infected cells [7]: potent antiviral activity
- IC50 [10]: 10.1 nM
- phosphorylation of IRF3 (western blot) [8]: induced phosphorylation of IRF3

Compound: Scleroglucan
- viral genome replication (qRT-PCR) [9]: significantly reduced
- antiviral activity (inhibition) against WNV, primary screen [4]: > 50%
- viral-mediated cytopathic effect (CPE) [5]: prevented CPE
- viral genome reads of the total reads ([11]; CHIKV-infected HFF-1, 24 hpi): 63%
- phosphorylation of IRF3 (Ser386) [12]: only a few cells have a cytoplasmic form of phospho-IRF3
- phosphorylation of STING (Ser366) [12]: did not have detectable levels
- CHIKV productive infection / replication in PSC-CMs [13]: inhibited; also recorded: moderately reducing
- phosphorylation of IRF3 (western blot) [8]: only the basal level

Compound: CCCCCCCCCCCCCCCC(=O)OCC(CSC[C@H](N)C(=O)N[C@@H](CO)C(=O)N[C@@H](CCCCN)C(=O)N[C@@H](CCCCN)C(=O)N[C@@H](CCCCN)C(=O)N[C@@H](CCCCN)C(=O)Nc1ccc(Cn2c(O)nc3c(N)nc(NCCCC)nc32)cc1)OC(=O)CCCCCCCCCCCCCCC (some centres unmarked) [Adilipoline(CL413)]
- effect on viral replication, primary screen (Figure 1C) [7]: enhanced viral replication

Compound: CC(=O)N[C@@H]1[C@@H](O[C@H](C)C(=O)N[C@@H](C)C(=O)N[C@H](CCC(=O)O)C(N)=O)[C@H](O)[C@@H](CO)O[C@H]1O [MDP]
- inhibition of WNV, primary screen [4]: potent inhibition
- inhibition of ZIKV, primary screen [6]: potent inhibition
- inhibition of CHIKV, primary screen [7]: not against CHIKV

Compound: Nc1ncnc2c1ncn2[C@@H]1O[C@@H]2COP(=O)(O)O[C@H]3[C@@H](O)[C@H](n4cnc5c(=O)[nH]cnc54)O[C@@H]3COP(=O)(O)O[C@H]2[C@H]1O [cAIMP]
- nicotinamide adenine dinucleotide (NADH) levels [14]: increased
- intracellular ATP [15]: prevented ATP depletion
- viral genome replication (qRT-PCR) [9]: significantly reduced
- infectivity against WNV at the highest non-toxic dose [4]: below-detectable infectivity
- viral-mediated cytopathic effect (CPE) [5]: prevented CPE
- volume of footpad swelling, chronic long-term follow-up ([16]; 14-month-old mice, cAIMP pretreatment, up to 2 months post-infection): significantly reduced
- virus replication, chronic long-term follow-up ([16]; 14-month-old mice, cAIMP pretreatment, up to 2 months post-infection (59 dpi)): significantly reduced
- inflammatory gene expression, therapeutic ([16]; mouse, cAIMP 10 mg/kg i.p. at 6 or 12 hpi, left footpad): reducing
- viral replication, therapeutic ([16]; mouse, cAIMP 10 mg/kg i.p. single dose at 6 or 12 hpi): reducing
- footpad swelling, therapeutic ([16]; mouse, cAIMP 10 mg/kg i.p. single dose at 6 or 12 hpi, up to 21 dpi): protected the animals from significant footpad swelling
- CHIKV-mediated footpad swelling, prophylactic ([16]; mouse, cAIMP 10 mg/kg i.p. single dose at day -1, observed 7 days): significantly prevented
- body weight changes ([16]; mouse, cAIMP at 6 or 12 h post-CHIKV infection): No significant body weight changes
- reduction in viral genome replication in left-rear footpad (qRT-PCR) ([16]; mouse, cAIMP pretreatment 10 mg/kg i.p., day 3): 2 log
- expression of inflammatory genes Ccl2, Il-6 and Il-10 in left footpad ([16]; mouse, cAIMP-pretreated, 7 dpi): significant downregulation
- infectivity against ZIKV at the highest non-toxic dose [6]: below-detectable infectivity
- inflammatory cellular infiltration, therapeutic ([17]; cAIMP 10 mg/kg i.p. at 6 or 12 hpi, left footpad): reducing
- pathological changes and left-rear footpad swelling (histopathology) ([17]; cAIMP pretreatment, 7 dpi): prevented
- HEATR9 expression induced by CHIKV ([11]; CHIKV-infected HFF-1): reversed the induction
- reduction of viral gene expression compared with untreated infected cells ([11]; CHIKV-infected HFF-1, 24 hpi): about 880 fold
- viral genome reads of the total reads ([11]; CHIKV-infected HFF-1, 24 hpi): 0.1%
- antiviral activity, post-treatment of CHIKV-infected cells [7]: potent antiviral activity
- infectivity against CHIKV at the highest non-toxic dose [7]: below-detectable infectivity
- phosphorylation of IRF3 (western blot) [8]: induced phosphorylation of IRF3

Compound: CC(C)Cn1cnc2c(N)nc3ccccc3c21 [Imiquimod]
- viral genome replication (qRT-PCR) [9]: significantly reduced
- inhibition of WNV, primary screen [4]: potent inhibition
- antiviral activity (inhibition) against WNV, primary screen [4]: > 50%
- inhibition of ZIKV, primary screen [6]: potent inhibition
- inhibition of CHIKV, primary screen [7]: not against CHIKV

Compound: Nc1nc2c(ncn2[C@@H]2O[C@@H]3COP(=O)(O)O[C@H]4[C@@H](O)[C@H](n5cnc6c(N)ncnc65)O[C@@H]4COP(=O)(O)O[C@@H]2[C@@H]3O)c(=O)[nH]1 [2'3'-cGAMP, 2′,3′-cGAMP]
- viral genome replication (qRT-PCR) [9]: significantly reduced
- infectivity against WNV at the highest non-toxic dose [4]: below-detectable infectivity
- viral-mediated cytopathic effect (CPE) [5]: prevented CPE
- infectivity against ZIKV at the highest non-toxic dose [6]: below-detectable infectivity
- infectivity against CHIKV at the highest non-toxic dose [7]: below-detectable infectivity
- phosphorylation of IRF3 (western blot) [8]: induced phosphorylation of IRF3

Compound: Nc1nc2c(ncn2[C@@H]2O[C@@H]3COP(=O)(O)O[C@H]4[C@@H](O)[C@H](n5cnc6c(=O)[nH]c(N)nc65)O[C@@H]4COP(=O)(O)O[C@H]3[C@H]2O)c(=O)[nH]1 [c-di-GMP]
- inhibition of WNV, primary screen [4]: potent inhibition
- inhibition of ZIKV, primary screen [6]: potent inhibition
- effect on viral replication, primary screen (Figure 1C) [7]: enhanced viral replication
- inhibition of CHIKV, primary screen [7]: not against CHIKV
